Laboratory results as given in EPA's CvTdb concentration-time database.

Key:
Rat [1] = assay: concentration in plasma after dosing; settings: oral
Mouse = assay: concentration in plasma after dosing; settings: dosed: 2-Hydroxy-4-methoxybenzophenone, B6C3F1
rat [2] = assay: concentration in blood after dosing; negative times count back from the end of exposure; settings: inhalation, male

CCC1(c2ccccc2)C(=O)NCNC1=O [Primidone]
concentration in plasma [ng/mL], Rat [1], dosed: Primidone
Settings | 0.25 h | 0.5 h | 1.5 h | 3 h | 6 h | 9 h | 12 h | 18 h | 22 h
30 mg/kg, Female, F344 | 18100 | – | 23900 | 24900 | 11900 | 5700 | 2200 | 500 | –
30 mg/kg, Male, F344 | 8900 | – | 10000 | 6700 | 500 | – | – | – | –
80 mg/kg, Female, F344 | 16900 | 40000 | 48800 | 75900 | 36400 | 23400 | 12600 | 3600 | 400
80 mg/kg, Female, Harlan Sprague-Dawley | 9900 | 27200 | – | – | – | – | 1500 | – | –
80 mg/kg, Male, F344 | – | – | 34700 | 37100 | 14000 | 4000 | – | – | –
130 mg/kg, Female, F344 | – | 19600 | 78900 | 53300 | 24600 | 53800 | 5500 | – | 100
130 mg/kg, Female, Harlan Sprague-Dawley | – | – | 51900 | – | – | – | – | – | –
130 mg/kg, Male, F344 | – | – | 51500 | – | 22800 | 9000 | – | – | –
130 mg/kg, Male, Harlan Sprague Dawley | – | 55100 | – | 100000 | – | – | 22300 | – | –

O=C(c1ccccc1)c1ccc(O)cc1O [2,4-Dihydroxybenzophenone]
concentration in plasma [ng/mL], Rat [1], dosed: 2-Hydroxy-4-methoxybenzophenone, F344
Settings | 0.25 h | 0.5 h | 2.5 min | 3 h | 4 h | 5 h | 6 h | 10 h | 10 min | 12 h
100 mg/kg, Female | 174 | 145 | 64.3 | 82.3 | 54.2 | 60.3 | – | – | 200 | –
100 mg/kg, Male | 52.2 | 114 | – | 38.2 | 65.6 | 55.8 | – | – | 31 | –
250 mg/kg, Female | 410 | 658 | – | 166 | 157 | – | – | 89.8 | 57.2 | –
250 mg/kg, Male | 109 | 218 | – | 114 | 92.3 | – | – | 91.7 | 39.4 | –
500 mg/kg, Female | 287 | 688 | – | – | 296 | – | – | 242 | 178 | 185
500 mg/kg, Male | 180 | 192 | – | – | 233 | – | 171 | – | 2430 | 246

concentration in plasma [ng/mL], Mouse
Settings | 0.25 h | 2 h | 2.5 min | 3 h | 10 min
50 mg/kg, iv, Female | 800 | 44.6 | – | 63.1 | 1700
50 mg/kg, iv, Male | 1440 | 230 | – | 70.5 | 3710
100 mg/kg, oral, Female | 721 | 61.9 | 44 | 50.2 | 383
100 mg/kg, oral, Male | 171 | 320 | 120 | 109 | 195
250 mg/kg, oral, Female | 1340 | 185 | 71.2 | 120 | 1840
250 mg/kg, oral, Male | 988 | 338 | 115 | 265 | 542
500 mg/kg, oral, Female | 3280 | 309 | – | – | 2800
500 mg/kg, oral, Male | 1510 | 282 | – | – | 1110

C=C(Cl)Cl [1,1-dichloroethylene]
rat [2], dosed: 1,1-dichloroethylene, duration: 3 hr, Sprague-Dawley
Settings | concentration in blood [ng/mL]
0.1331 h, 75 ppm | 162
0.1373 h, 300 ppm | 2120
0.1374 h, 25 ppm | 61.4
0.1383 h, 150 ppm | 122
0.1969 h, 75 ppm | 117
0.1973 h, 150 ppm | 108
0.1979 h, 25 ppm | 38.6
0.2044 h, 300 ppm | 1740
0.2603 h, 150 ppm | 92.9
0.2608 h, 75 ppm | 83.7
0.261 h, 25 ppm | 32.9
0.2757 h, 300 ppm | 1350
0.3322 h, 75 ppm | 62.5
0.3352 h, 300 ppm | 1060
0.3356 h, 25 ppm | 29.2
0.3396 h, 150 ppm | 68
0.3946 h, 150 ppm | 61.6
0.3984 h, 25 ppm | 26.6
0.3984 h, 300 ppm | 874
0.3991 h, 75 ppm | 54.9
0.496 h, 25 ppm | 25.4
0.4961 h, 150 ppm | 60
0.508 h, 300 ppm | 801
0.5085 h, 75 ppm | 50.8
4 s, 75 ppm | 340
13 s, 150 ppm | 473
118 s, 25 ppm | 126
132 s, 75 ppm | 312
133 s, 150 ppm | 291
137 s, 300 ppm | 3090
232 s, 75 ppm | 275
238 s, 25 ppm | 78.9
238 s, 150 ppm | 188
253 s, 300 ppm | 2500

rat [2], dosed: 1,1-dichloroethylene, duration: 3 hr, Sprague-Dawley, during exposure
Settings | concentration in blood [ng/mL]
-14 s, 25 ppm | 184
-8 s, 300 ppm | 4150
-2.956 h, 25 ppm | 50.3
-2.956 h, 75 ppm | 100
-2.954 h, 300 ppm | 1030
-2.951 h, 150 ppm | 83
-2.903 h, 25 ppm | 67.4
-2.899 h, 75 ppm | 139
-2.899 h, 150 ppm | 154
-2.893 h, 300 ppm | 1320
-2.861 h, 150 ppm | 190
-2.854 h, 300 ppm | 1490
-2.853 h, 75 ppm | 170
-2.846 h, 25 ppm | 92.7
-2.793 h, 25 ppm | 128
-2.793 h, 300 ppm | 1680
-2.792 h, 150 ppm | 271
-2.787 h, 75 ppm | 188
-2.729 h, 75 ppm | 212
-2.727 h, 25 ppm | 143
-2.727 h, 150 ppm | 302
-2.727 h, 300 ppm | 1840
-2.657 h, 150 ppm | 325
-2.653 h, 25 ppm | 149
-2.653 h, 300 ppm | 1920
-2.652 h, 75 ppm | 253
-2.583 h, 300 ppm | 2080
-2.582 h, 75 ppm | 263
-2.575 h, 25 ppm | 143
-2.568 h, 150 ppm | 371
-2.498 h, 25 ppm | 155
-2.494 h, 300 ppm | 2200
-2.492 h, 75 ppm | 283
-2.49 h, 150 ppm | 408
-2.396 h, 300 ppm | 2250
-2.393 h, 25 ppm | 162
-2.391 h, 75 ppm | 301
-2.389 h, 150 ppm | 421
-2.197 h, 75 ppm | 333
-2.194 h, 25 ppm | 162
-2.194 h, 150 ppm | 424
-2.194 h, 300 ppm | 2410
-1.996 h, 300 ppm | 2600
-1.995 h, 25 ppm | 166
-1.99 h, 75 ppm | 335
-1.988 h, 150 ppm | 461
-1.743 h, 300 ppm | 2760
-1.742 h, 25 ppm | 171
-1.741 h, 75 ppm | 340
-1.738 h, 150 ppm | 453
-1.5 h, 25 ppm | 176
-1.497 h, 300 ppm | 3050
-1.496 h, 75 ppm | 346
-1.493 h, 150 ppm | 463
-1.003 h, 300 ppm | 3380
-1.002 h, 150 ppm | 450
-0.9974 h, 25 ppm | 172
-0.9966 h, 75 ppm | 338
-0.5007 h, 300 ppm | 3850
-0.4991 h, 150 ppm | 466
-0.4977 h, 75 ppm | 337
-0.4481 h, 25 ppm | 182

OCC(Cl)(Cl)Cl [trichloroethanol (free)]
rat [2], dosed: trichloroethylene, 50 ppm, duration: 4 hr, Sprague Dawley
Settings | concentration in blood [ng/mL]
0.1729 h | 1250
0.1865 h | 2020
0.2651 h | 1140
0.2753 h | 828
0.3836 h | 2260
0.4311 h | 1340
0.5027 h | 1180
0.594 h | 829
0.9111 h | 1110
0.9517 h | 1010
1.022 h | 1130
1.11 h | 898
1.769 h | 955
1.908 h | 1010
2.006 h | 889
3.915 h | 1650
3.921 h | 897
4.003 h | 757
5.934 h | 757
5.937 h | 703
5.949 h | 1380
5.978 h | 655
7.942 h | 1260
7.97 h | 667
7.992 h | 595
9.919 h | 656
9.986 h | 538
10.01 h | 509
10.11 h | 1120
11.91 h | 627
11.95 h | 1030
11.98 h | 546
12.02 h | 481
13.9 h | 557
13.93 h | 469
13.94 h | 1040
13.99 h | 534
15.9 h | 507
15.93 h | 893
15.95 h | 448
17.94 h | 348
17.96 h | 350
41 s | 978
86 s | 1200

rat [2], dosed: trichloroethylene, 50 ppm, duration: 4 hr, Sprague Dawley, during exposure
Settings | concentration in blood [ng/mL]
-169 s | 1350
-3.506 h | 437
-3.433 h | 315
-3.408 h | 626
-3.033 h | 1060
-3.009 h | 547
-3 h | 486
-2.975 h | 327
-2.015 h | 830
-2.001 h | 1560
-1.996 h | 845
-1.989 h | 628
-1.021 h | 1080
-1.008 h | 1890
-0.9983 h | 790
-0.9843 h | 968
-0.032 h | 1940
